Test results reported in patent US20230227838A1, “ENHANCED CELL SURVIVAL AGAINST BIOTIC AND ABIOTIC STRESSES THROUGH SALICYLICK ACID-INDUCED NPR1 CONDENSATES” (priority 2020, published 2023).

Key:
CUL3 = assay: Pull-down of Myc-CUL3 with GST-fused NPR1 or variants co-expressed in E. coli; format: binding, Arabidopsis thaliana
Source text: Plasmid construction and E. coli-based ubiquitination: The coding sequences for all Arabidopsis genes were amplified from cDNA. Point mutations of AtNPR1 (AT1G64280) were generated using the QuikChange II site-directed mutagenesis kit (Agilent). Overlap PCR was used to generate the deletion/truncation mutations of AtCUL3A (AT1G26830) and AtNPR1. The WT and mutated coding sequences for all genes and gene fusions were sub-cloned into the pDONR207 gateway donor vector and confirmed by sequencing. The obtained entry vectors were recombined into either plant or E. coli destination vectors without or with an N- or C-terminal tag. For in planta expression, genes were recombined into the plant binary vectors pK7FWG2, pSITE-4NB and pLN462 to generate C-terminal eGFP, mCherry and HA fusions, respectively; into pK7WGF2, pEG201, pEG202, pEG203 and pEG204 to generate N-terminal eGFP, HA, FLAG, Myc and V5 fusions, respectively. […] For bimolecular fluorescence complementation (BiFC), entry vectors carrying the coding sequences of genes and their mutant variants were recombined into the pSITE-cEYFP-N1 binary vector for C-terminal fusion with the cYFP half (YC), or into the pSITE-nEYFP-C1 for N-terminal fusion with the nYFP half (YN). […]

[1] = system: Psm ES4326/AvrRpt2-mediated cell death; assay: Cell death (conductivity/electrolyte leakage, trypan blue) after Psm ES4326/AvrRpt2 inoculation; format: in vivo, Arabidopsis thaliana; conditions: SA pretreatment at 0.5 and 1 mM; WT plants, not in npr1-2 mutant
Description: Chemical treatment, pathogen infection and cell death assays. […] At 2 days, the bacterial colonies were scored.
Trypan blue staining. Leaves of three-week-old Arabidopsis infected with Psm ES4326/AvrRpt2 were sampled at 1 dpi, boiled in 95% ethanol until completely bleached, followed by boiling for 3 min in a 1:1 mixture of 95% ethanol and staining solution (10 ml lactic acid, 10 ml glycerol, 10 g phenol and 10 mg trypan blue, dissolved in 10 ml DDW). The leaves were then de-stained in 2.5 g/ml chloral hydrate solution and transferred to 70% glycerol for subsequent imaging.

Compound	interaction with CUL3 when co-expressed in E. coli (CUL3)	Psm ES4326/AvrRpt2-mediated cell death [1]
NPR1: wild-type Arabidopsis thaliana NPR1 protein, positive regulator of systemic acquired resistance	could be easily observed	–
O=C(O)c1ccccc1O [SA, salicylic acid]	–	fully suppress
